Assays:
[1] = target: T1, Hp-Fld (H. pylori flavodoxin) (Helicobacter pylori, UniProt O25776); assay: biochemical; set-up: isothermal titration calorimetry of compounds binding to recombinant wild-type Hp-Fld, pH 9
T1 construct: gene fldA; recombinant from pET28a-fldA in E. coli BL21 (DE3); DEAE purification, no tag mentioned; FMN added during lysis, transformed into holoprotein if needed
T1 sequence (O25776 1-164): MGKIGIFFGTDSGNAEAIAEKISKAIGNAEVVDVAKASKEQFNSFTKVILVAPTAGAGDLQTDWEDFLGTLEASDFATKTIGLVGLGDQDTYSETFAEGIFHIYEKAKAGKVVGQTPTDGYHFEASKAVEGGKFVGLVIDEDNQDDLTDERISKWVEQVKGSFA
Experimental: Isothermal titration calorimetry (ITC) experiments were carried out in an Auto-iTC200 calorimeter (MicroCal, Malvern-Panalytical, Malvern, UK) in order to characterise the affinity of the wild-type Hp-Fld protein and the different mutants N14A, A55W, V113W, Q115W, T116W, K133A and D142Y for the different compounds. Recombinant Hp-Fld at 10–20 µM concentration in 50 mM EPPS buffer, pH 9 (for IV, IV-a, IV-b, IV-c, rac-IV-j, rac-IV-k and rac-IV-l), or in 50 mM Tris-HCl buffer, pH 9 (for IV-d) was titrated with 120–300 µM ligand solutions in the same buffer, prepared from stock compound solutions in 100% DMSO. At the residual DMSO concentration of 2.5% employed in the working solutions, wild-type flavodoxin has been described to be conformationally stable and biochemically active. Thermodynamic parameters of the binding equilibrium were calculated by non-linear least-squares regression analysis considering a single ligand binding site and using the user-defined fitting routines in the MicroCal LLC ITC module from the Origin 7.0 software (Northampton, MA, USA). Interaction between wild-type Hp-Fld and compounds IV, IV-a, IV-b, IV-c, IV-d, rac-IV-j, rac-IV-k and rac-IV-l was evaluated by ITC (Figure S3 and Table S1).

[2] = target: T2, Hp-Fld (H. pylori flavodoxin) (Helicobacter pylori, UniProt O25776, A55W); assay: biochemical
T2 construct: gene fldA
Description: (§1) isothermal titration calorimetry on Hp-Fld (H. pylori flavodoxin)

[3] = target: T3, Hp-Fld (H. pylori flavodoxin) (Helicobacter pylori, UniProt O25776, N14A); assay: biochemical
T3 construct: gene fldA
Description: as §1

[4] = target: T4, Hp-Fld (H. pylori flavodoxin) (Helicobacter pylori, UniProt O25776, T116W); assay: biochemical
T4 construct: gene fldA
Description: as §1

[5] = target: T5, Hp-Fld (H. pylori flavodoxin) (Helicobacter pylori, UniProt O25776, D142Y); assay: biochemical
T5 construct: gene fldA
Description: as §1

[6] = target: T6, Hp-Fld (H. pylori flavodoxin) (Helicobacter pylori, UniProt O25776, V113W); assay: biochemical
T6 construct: gene fldA
Description: as §1

[7] = target: T1, Hp-Fld (H. pylori flavodoxin); assay: isothermal titration calorimetry; assay type: binding

`Nc1ccc([S+]([O-])Cc2ccc(OCC(O)CO)cc2)c2nonc12` (racemic) [rac-IV-l, rac-3-(4-(((7-Aminobenzo[c][1,2,5]oxadiazol-4-yl)sulfinyl)methyl)phenoxy)propane-1,2-diol] showed a Kd [1] of 1650 nM.
In the case of `Nc1ccc(SCc2ccc(OCC(O)CO)cc2)c2nonc12` (racemic) [rac-IV-k, rac-3-(4-(((7-Aminobenzo[c][1,2,5]oxadiazol-4-yl)thio)methyl)phenoxy)propane-1,2-diol], the Kd [1] is reported as 3360 nM.
With `COc1ccc(C[S+]([O-])c2ccc(N)c3nonc23)cc1` (stereo not drawn) [IV-d] the Kd [1] was 1550 nM.
`COc1ccc(CSc2ccc([N+](=O)[O-])c3nonc23)cc1` [IV] showed a Kd [2] of 2330 nM, a Kd [3] of 450 nM and a Kd [4] of 1100 nM. The Kd [5] was 1180 nM, the Kd [6] was 500 nM and the Kd ([7]; read-out: IV / Kd^b) was 480 nM.
`COc1ccc(CSc2ccc(N)c3nonc23)cc1` [IV-a] gave a Kd [1] of 5260 nM.
With `COc1ccc(CSc2cc(Cl)c(N)c3nonc23)cc1` [IV-c] the Kd [2] was 1050 nM, the Kd [3] was 1760 nM and the Kd [4] was 1430 nM. It also gave a Kd [5] of 440 nM, a Kd [6] of 1450 nM and a Kd ([7]; read-out: IV-c / Kd^b) of 670 nM.
`COc1ccc(C2(C)SCc3cc(C)c(C)cc3CS2)cc1` [IV-b] showed a Kd [1] of 910 nM.
`O=[N+]([O-])c1ccc(SCc2ccc(OCC(O)CO)cc2)c2nonc12` (racemic) [rac-IV-j, rac-3-(4-(((7-Nitrobenzo[c][1,2,5]oxadiazol-4-yl)thio)methyl)phenoxy)propane-1,2-diol] gave a Kd [1] of 2330 nM.
